In patent US4507318A, “1-Aryl 2-aminomethyl cyclopropane carboxylates (Z) as drugs in the treatment of pain” (Pierre Fabre S.A., priority 1981, dated 1985):
Structures can show the parent of a compound that is named as a salt.

Key:
Solubility in water = type: physicochemical
Solubility in DMA = type: physicochemical

Compound: CCOC(=O)[C@]1(c2ccccc2)C[C@@H]1CN1CCC(c2ccccc2)CC1 (relative stereo) [Example 20, Hydrochloride of 1-phenyl 1-ethoxycarbonyl 2-(4'-phenylpiperidino)methyl cyclopropane (Z)]
- Solubility in water (in words) (Solubility in water): insoluble in water
- Solubility in DMA (Solubility in DMA): 50%
